A word on the IC50: it is the concentration that gives 50% inhibition.

This note sets out measurements from patent publication US11878973B2, “Bicyclic compounds and their uses” (NOVARTIS AG, priority 2021, dated 2024).

One experiment deals with DLD1-WRN-KO cells. The experiment in a line: Proliferation assay DLD1-WRN-KO (CellTiterGlo, 96 hours; off-target effects). Conditions: read-out: Proliferation Assay DLD1-WRN-KO (GI50). For orientation: Cellular ATP, detected with luciferase, serves as a proxy for viable cell number.
A further experiment deals with WRN helicase (Homo sapiens (Human), UniProt Q14191). The experiment in a line: In vitro enzymatic activity assay on WRN helicase (DNA dependent ATPase assay, ADP-Glo). It counts as biochemical. Conditions: geometric means of at least 2 determinations; read-out: WRN ATPase Activity (IC50). In a few lines: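 The WRN helicase core (aa N517-P1238), 10 nM, hydrolysed 300 µM ATP in the presence of 0.2 nM FLAP26 DNA (Tris pH 7.5, 2 mM MgCl2, 50 mM NaCl) for 30 min at room temperature. ADP formed was quantified by ADP-Glo luminescence.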
WRN helicase, sequence (Q14191 517-1238): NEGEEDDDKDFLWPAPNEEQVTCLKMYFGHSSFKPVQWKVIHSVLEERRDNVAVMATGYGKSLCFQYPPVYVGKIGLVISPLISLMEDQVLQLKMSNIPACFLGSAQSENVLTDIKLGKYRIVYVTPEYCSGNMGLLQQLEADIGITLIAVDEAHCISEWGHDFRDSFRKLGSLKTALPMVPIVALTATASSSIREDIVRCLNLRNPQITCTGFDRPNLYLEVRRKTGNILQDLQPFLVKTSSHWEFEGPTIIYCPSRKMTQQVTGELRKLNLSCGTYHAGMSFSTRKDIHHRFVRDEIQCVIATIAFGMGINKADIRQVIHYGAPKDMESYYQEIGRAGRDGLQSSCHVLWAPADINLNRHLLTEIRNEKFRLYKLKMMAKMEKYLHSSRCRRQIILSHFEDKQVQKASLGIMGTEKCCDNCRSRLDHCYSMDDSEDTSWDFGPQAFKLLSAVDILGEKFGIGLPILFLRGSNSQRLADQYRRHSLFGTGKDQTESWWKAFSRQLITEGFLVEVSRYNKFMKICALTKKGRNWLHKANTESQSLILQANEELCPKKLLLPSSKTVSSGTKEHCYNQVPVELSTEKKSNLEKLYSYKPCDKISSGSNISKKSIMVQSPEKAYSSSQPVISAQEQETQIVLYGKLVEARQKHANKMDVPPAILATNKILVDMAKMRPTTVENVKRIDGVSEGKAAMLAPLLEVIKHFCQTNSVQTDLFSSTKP
In general terms: ADP-Glo turns the ADP formed in a reaction into a luminescent signal.

Another experiment concerns SW48 cells. In words: Proliferation assay SW48 (CellTiterGlo, 96 hours).
[1] abbreviates: Homo sapiens, SW48, read-out: Proliferation Assay SW48 (GI50).

Each structure is given as a SMILES string. Where two headings read alike, the source gives them in different places.

Procedure for SW48 cells: The WRN-knockdown insensitive colon carcinoma cell line DLD-1 (RRID: CVCL_0248) was obtained from the Korean Cell Line Bank (KCLB), and used to generate a derivative in which the endogenous WRN gene copies were knocked out by CRISPR-mediated editing using standard CRISPR methods. The resulting cell line, DLD1-WRN—KO, was used to assess potential off-target compound effects.
All cells were maintained at 37° C. in a humidified 5% CO2 incubator.
For data analysis, the assay background signal that was determined in wells containing medium, but no cells, was subtracted from all other data points prior to further calculations. The extent of growth inhibition and potential cell kill was assessed by comparing the ATP levels (measured using CellTiterGlo, Promega) in compound-treated cells with those present at the time of compound addition. […] 100%, 0% and −100% signify absence of growth inhibition, growth stasis, and complete cell kill, respectively. Compound concentrations leading to half-maximal growth inhibition (G150) and residual cell viability at the highest tested compound concentration (Data (cmax), expressed in percent) were routinely calculated. Data analysis can also be carried out using commercially available software designed to derive IC50 values using 4-parameter fits (e.g. GraphPad Prism, XL fit). The reported GI50 values are the geometrical means of at least 2 independent replicates.

Turning to `CCc1c(N2CCN(C(=O)c3ncnc(C)c3O)CC2)c(=O)n2nc(C3=CCOCC3)nc2n1CC(=O)Nc1ccc(Br)cc1Cl` [Example 106, N-(4-bromo-2-chlorophenyl)-2-(2-(3,6-dihydro-2H-pyran-4-yl)-5-ethyl-6-(4-(5-hydroxy-6-methylpyrimidine-4-carbonyl)piperazin-1-yl)-7-oxo-[1,2,4]triazolo[1,5-a]pyrimidin-4(7H)-yl)acetamide], the GI50 in the experiment on DLD1-WRN-KO cells (Homo sapiens) is above 10000 nM; in the experiment on SW48 cells (setting [1]), 110 nM. At WRN helicase, the IC50 was 60 nM.
For `CCc1c(N2CCN(C(=O)c3ncnc(C)c3O)[C@@H](C)[C@H]2C)c(=O)n2nc(C3=CCOCC3)nc2n1CC(=O)Nc1ccc(C(F)(F)F)cc1Cl` (single isomer, unassigned) [Example 121], the GI50 in the experiment on DLD1-WRN-KO cells (DLD1-WRN-KO cell line, geometric means of at least 2 determinations) is above 10000 nM; with SW48 cells (read-out: Proliferation Assay SW48 (GI50), SW48 cell line, geometric means of at least 2 determinations) it was 1740 nM. At WRN helicase, the half-maximal inhibitory concentration (IC50) was 860 nM.
Take `CCc1c(N2CCN(C(=O)c3ncccc3O)CC2)c(=O)n2nc(C3=CCC(OC)CC3)nc2n1CC(=O)Nc1ccc(C(F)(F)F)cc1C` (racemic) [Example 80, rac-2-(5-ethyl-6-(4-(3-hydroxypicolinoyl)piperazin-1-yl)-2-(4-methoxycyclohex-1-en-1-yl)-7-oxo-[1,2,4]triazolo[1,5-a]pyrimidin-4(7H)-yl)-N-(2-methyl-4-(trifluoromethyl)phenyl)acetamide]: the results for the GI50 in the experiment with DLD1-WRN-KO cells (Homo sapiens) and in the experiment with SW48 cells (setting [1]) were above 10000 nM and 70 nM, respectively. Further, the IC50 at WRN helicase was found to be 60 nM.
In the case of `CCc1c(N2CCN(C(=O)c3nccc(C)c3O)CC2)c(=O)n2nc(C3=CCOCC3)nc2n1CC(=O)Nc1ccc(C(F)(F)F)cc1` [Example 75, 2-(2-(3,6-dihydro-2H-pyran-4-yl)-5-ethyl-6-(4-(3-hydroxy-4-methylpicolinoyl)piperazin-1-yl)-7-oxo-[1,2,4]triazolo[1,5-a]pyrimidin-4(7H)-yl)-N-(4-(trifluoromethyl)phenyl)acetamide], the GI50 is above 10000 nM in the experiment on DLD1-WRN-KO cells (Homo sapiens) and 80 nM in the experiment on SW48 cells (setting [1]). The half-inhibitory concentration (IC50) on WRN helicase came out at 50 nM.
On to `CCc1c(N2CCN(C(=O)c3ncccc3O)CC2)c(=O)n2nc(N3CC4CC(C3)O4)nc2n1CC(=O)Nc1ccc(C(F)(F)F)cc1C` [Example 21, 2-(2-(6-oxa-3-azabicyclo[3.1.1]heptan-3-yl)-5-ethyl-6-(4-(3-hydroxypicolinoyl)piperazin-1-yl)-7-oxo-[1,2,4]triazolo[1,5-a]pyrimidin-4(7H)-yl)-N-(2-methyl-4-(trifluoromethyl)phenyl)acetamide], for which the GI50 with DLD1-WRN-KO cells (Homo sapiens) is above 10000 nM; in the experiment with SW48 cells (setting [1]), 1070 nM. For the same compound, on WRN helicase, the 50% inhibitory concentration (IC50) turned out to be 180 nM.
Turning to `CCc1c(N2CCN(C(=O)c3ncccc3O)CC2)c(=O)n2nc(-c3ccc(C)nc3)nc2n1CC(=O)Nc1ccc(C(F)(F)F)cc1C` [Example 77, 2-(5-ethyl-6-(4-(3-hydroxypicolinoyl)piperazin-1-yl)-2-(6-methylpyridin-3-yl)-7-oxo-[1,2,4]triazolo[1,5-a]pyrimidin-4(7H)-yl)-N-(2-methyl-4-(trifluoromethyl)phenyl)acetamide], the figures for the GI50 with DLD1-WRN-KO cells (Homo sapiens) and in the experiment on SW48 cells (setting [1]) were above 10000 nM and 380 nM, respectively. The concentration for half-maximal inhibition (IC50) on WRN helicase came out at 210 nM.
Take `CCc1c(N2CCN(C(=O)c3ncnc(C)c3O)[C@@H](C)[C@@H]2C)c(=O)n2nc(C3=CCOCC3)nc2n1CC(=O)Nc1ccc(C(F)(F)F)cc1Cl` [Example 120, N-(2-chloro-4-(trifluoromethyl)phenyl)-2-(2-(3,6-dihydro-2H-pyran-4-yl)-5-ethyl-6-((2S,3S)-4-(5-hydroxy-6-methylpyrimidine-4-carbonyl)-2,3-dimethylpiperazin-1-yl)-7-oxo-[1,2,4]triazolo[1,5-a]pyrimidin-4(7H)-yl)acetamide]: the GI50 is above 10000 nM in the experiment on DLD1-WRN-KO cells (Homo sapiens) and 930 nM with SW48 cells (setting [1]). Also, the concentration for half-maximal inhibition (IC50) at WRN helicase came to 470 nM.
For `Cc1c(N2CCN(C(=O)c3ncccc3O)CC2)c(=O)n2nc(N3CC4CC(C3)O4)nc2n1CC(=O)Nc1ccc(C(F)(F)F)cc1F` [Example 22, 2-(2-(6-oxa-3-azabicyclo[3.1.1]heptan-3-yl)-6-(4-(3-hydroxypicolinoyl)piperazin-1-yl)-5-methyl-7-oxo-[1,2,4]triazolo[1,5-a]pyrimidin-4(7H)-yl)-N-(2-fluoro-4-(trifluoromethyl)phenyl)acetamide], in that order: above 10000 nM, 2630 nM and 600 nM.
Take `CCc1c(N2CCN(C(=O)c3ncccc3O)CC2)c(=O)n2nc(N3CCC[C@@H](F)C3)nc2n1CC(=O)Nc1ccc(C(F)(F)F)nc1Cl` [Example 16a, (R)—N-(2-chloro-6-(trifluoromethyl)pyridin-3-yl)-2-(5-ethyl-2-(3-fluoropiperidin-1-yl)-6-(4-(3-hydroxypicolinoyl)piperazin-1-yl)-7-oxo-[1,2,4]triazolo[1,5-a]pyrimidin-4(7H)-yl)acetamide]: the GI50 in the experiment with DLD1-WRN-KO cells (Homo sapiens) is above 10000 nM; in the experiment with SW48 cells (setting [1]) it was 340 nM. The IC50 at WRN helicase turned out to be 190 nM.
`CCc1c(N2CCN(C(=O)c3ncccc3O)CC2)c(=O)n2nc(N3CCCC3)nc2n1CC(=O)Nc1cc(Cl)c(C(F)(F)F)cc1C` [Example 19, N-(5-chloro-2-methyl-4-(trifluoromethyl)phenyl)-2-(5-ethyl-6-(4-(3-hydroxypicolinoyl)piperazin-1-yl)-7-oxo-2-(pyrrolidin-1-yl)-[1,2,4]triazolo[1,5-a]pyrimidin-4(7H)-yl)acetamide]: the GI50 stood at 5000 nM with DLD1-WRN-KO cells (Homo sapiens) and 110 nM with SW48 cells (setting [1]). In addition, on WRN helicase, the IC50 was found to be 90 nM.
For `CCc1c(N2CCN(C(=O)c3ncccc3O)CC2)c(=O)n2nc(C3=CCCCO3)nc2n1CC(=O)Nc1ccc(C(F)(F)F)nc1C` [Example 55, 2-(2-(3,4-dihydro-2H-pyran-6-yl)-5-ethyl-6-(4-(3-hydroxypicolinoyl)piperazin-1-yl)-7-oxo-[1,2,4]triazolo[1,5-a]pyrimidin-4(7H)-yl)-N-(2-methyl-6-(trifluoromethyl)pyridin-3-yl)acetamide], in that order: above 10000 nM, 100 nM and 200 nM.
On to `CCc1c(N2CCN(C(=O)c3ncccc3O)CC2)c(=O)n2nc(N3CCOCC3)nc2n1CC(=O)Nc1ccc(C(F)(F)F)cc1Cl` [Example 2, N-(2-chloro-4-(trifluoromethyl)phenyl)-2-(5-ethyl-6-(4-(3-hydroxypicolinoyl)piperazin-1-yl)-2-morpholino-7-oxo-[1,2,4]triazolo[1,5-a]pyrimidin-4(7H)-yl)acetamide], for which the GI50 with DLD1-WRN-KO cells (Homo sapiens) was above 10000 nM; in the experiment on SW48 cells (setting [1]), 190 nM. In addition, the IC50 at WRN helicase came to 80 nM.
As to `CCc1c(N2CCN(C(=O)c3ncnc(C)c3O)CC2)c(=O)n2nc(C3=CCOCC3)nc2n1CC(=O)Nc1ccc(C(F)(F)F)cc1F` [Example 107, 2-(2-(3,6-dihydro-2H-pyran-4-yl)-5-ethyl-6-(4-(5-hydroxy-6-methylpyrimidine-4-carbonyl)piperazin-1-yl)-7-oxo-[1,2,4]triazolo[1,5-a]pyrimidin-4(7H)-yl)-N-(2-fluoro-4-(trifluoromethyl)phenyl)acetamide], the GI50 in the experiment on DLD1-WRN-KO cells (Homo sapiens) is above 10000 nM; in the experiment with SW48 cells (setting [1]), 100 nM. In addition, the IC50 on WRN helicase is 50 nM.
On to `CCc1c(N2CCN(C(=O)c3nccc(Cl)c3O)CC2)c(=O)n2nc(C3=CCOCC3)nc2n1CC(=O)Nc1ccc(C(F)(F)F)c(F)c1C` [Example 37, 2-(6-(4-(4-chloro-3-hydroxypicolinoyl)piperazin-1-yl)-2-(3,6-dihydro-2H-pyran-4-yl)-5-ethyl-7-oxo-[1,2,4]triazolo[1,5-a]pyrimidin-4(7H)-yl)-N-(3-fluoro-2-methyl-4-(trifluoromethyl)phenyl)acetamide], for which the GI50 in the experiment with DLD1-WRN-KO cells (Homo sapiens) is above 10000 nM; in the experiment on SW48 cells (setting [1]) it was 30 nM. The concentration for half-maximal inhibition (IC50) at WRN helicase was found to be 20 nM.
